Test results reported in patent US8129417B2, “Substituted octahydrocyclopenta[C]pyrrol-4-amines as calcium channel blockers” (Abbott Laboratories, priority 2008, dated 2012).
pIC50: −log10 of the molar value.

Target: human Cav2.2 (Homo sapiens, UniProt Q00975)
Assay: Assessment of calcium channel activity using FLIPR (Ca2+ influx in IMR32 cells)
Assay type: cell-based
Conditions: 3 minute pre-incubation with compound (*), 2 μM nifedipine, depolarized with 80 mM KCl
Procedure: (i) In Vitro Methods—Assessment of Calcium Channel Activity Using FLIPR:
The IMR32 cells were maintained in MEM media containing 10% (v/v) FBS, 1% (v/v) antibiotic/antimitotic, 1% (v/v) sodium pyruvate and 1% (v/v) MEM NEAA. Following dissociation in 0.05% (v/v) trypsin/EDTA, cells were seeded into black 1×96-well plates (Corning Cellbind) at a density of 1-1.2×10^5 cells/well and incubated in the maintenance media above for 48 hours at 37° C. […] To determine the IC50 values, the percent inhibition of the compound at each concentration was determined relative to the activity in the absence of inhibitor, and data was fitted using non-linear regression sigmoidal dose response curve analysis with GraphPad Prism®.

human Cav2.2, sequence (Q00975 whole entry): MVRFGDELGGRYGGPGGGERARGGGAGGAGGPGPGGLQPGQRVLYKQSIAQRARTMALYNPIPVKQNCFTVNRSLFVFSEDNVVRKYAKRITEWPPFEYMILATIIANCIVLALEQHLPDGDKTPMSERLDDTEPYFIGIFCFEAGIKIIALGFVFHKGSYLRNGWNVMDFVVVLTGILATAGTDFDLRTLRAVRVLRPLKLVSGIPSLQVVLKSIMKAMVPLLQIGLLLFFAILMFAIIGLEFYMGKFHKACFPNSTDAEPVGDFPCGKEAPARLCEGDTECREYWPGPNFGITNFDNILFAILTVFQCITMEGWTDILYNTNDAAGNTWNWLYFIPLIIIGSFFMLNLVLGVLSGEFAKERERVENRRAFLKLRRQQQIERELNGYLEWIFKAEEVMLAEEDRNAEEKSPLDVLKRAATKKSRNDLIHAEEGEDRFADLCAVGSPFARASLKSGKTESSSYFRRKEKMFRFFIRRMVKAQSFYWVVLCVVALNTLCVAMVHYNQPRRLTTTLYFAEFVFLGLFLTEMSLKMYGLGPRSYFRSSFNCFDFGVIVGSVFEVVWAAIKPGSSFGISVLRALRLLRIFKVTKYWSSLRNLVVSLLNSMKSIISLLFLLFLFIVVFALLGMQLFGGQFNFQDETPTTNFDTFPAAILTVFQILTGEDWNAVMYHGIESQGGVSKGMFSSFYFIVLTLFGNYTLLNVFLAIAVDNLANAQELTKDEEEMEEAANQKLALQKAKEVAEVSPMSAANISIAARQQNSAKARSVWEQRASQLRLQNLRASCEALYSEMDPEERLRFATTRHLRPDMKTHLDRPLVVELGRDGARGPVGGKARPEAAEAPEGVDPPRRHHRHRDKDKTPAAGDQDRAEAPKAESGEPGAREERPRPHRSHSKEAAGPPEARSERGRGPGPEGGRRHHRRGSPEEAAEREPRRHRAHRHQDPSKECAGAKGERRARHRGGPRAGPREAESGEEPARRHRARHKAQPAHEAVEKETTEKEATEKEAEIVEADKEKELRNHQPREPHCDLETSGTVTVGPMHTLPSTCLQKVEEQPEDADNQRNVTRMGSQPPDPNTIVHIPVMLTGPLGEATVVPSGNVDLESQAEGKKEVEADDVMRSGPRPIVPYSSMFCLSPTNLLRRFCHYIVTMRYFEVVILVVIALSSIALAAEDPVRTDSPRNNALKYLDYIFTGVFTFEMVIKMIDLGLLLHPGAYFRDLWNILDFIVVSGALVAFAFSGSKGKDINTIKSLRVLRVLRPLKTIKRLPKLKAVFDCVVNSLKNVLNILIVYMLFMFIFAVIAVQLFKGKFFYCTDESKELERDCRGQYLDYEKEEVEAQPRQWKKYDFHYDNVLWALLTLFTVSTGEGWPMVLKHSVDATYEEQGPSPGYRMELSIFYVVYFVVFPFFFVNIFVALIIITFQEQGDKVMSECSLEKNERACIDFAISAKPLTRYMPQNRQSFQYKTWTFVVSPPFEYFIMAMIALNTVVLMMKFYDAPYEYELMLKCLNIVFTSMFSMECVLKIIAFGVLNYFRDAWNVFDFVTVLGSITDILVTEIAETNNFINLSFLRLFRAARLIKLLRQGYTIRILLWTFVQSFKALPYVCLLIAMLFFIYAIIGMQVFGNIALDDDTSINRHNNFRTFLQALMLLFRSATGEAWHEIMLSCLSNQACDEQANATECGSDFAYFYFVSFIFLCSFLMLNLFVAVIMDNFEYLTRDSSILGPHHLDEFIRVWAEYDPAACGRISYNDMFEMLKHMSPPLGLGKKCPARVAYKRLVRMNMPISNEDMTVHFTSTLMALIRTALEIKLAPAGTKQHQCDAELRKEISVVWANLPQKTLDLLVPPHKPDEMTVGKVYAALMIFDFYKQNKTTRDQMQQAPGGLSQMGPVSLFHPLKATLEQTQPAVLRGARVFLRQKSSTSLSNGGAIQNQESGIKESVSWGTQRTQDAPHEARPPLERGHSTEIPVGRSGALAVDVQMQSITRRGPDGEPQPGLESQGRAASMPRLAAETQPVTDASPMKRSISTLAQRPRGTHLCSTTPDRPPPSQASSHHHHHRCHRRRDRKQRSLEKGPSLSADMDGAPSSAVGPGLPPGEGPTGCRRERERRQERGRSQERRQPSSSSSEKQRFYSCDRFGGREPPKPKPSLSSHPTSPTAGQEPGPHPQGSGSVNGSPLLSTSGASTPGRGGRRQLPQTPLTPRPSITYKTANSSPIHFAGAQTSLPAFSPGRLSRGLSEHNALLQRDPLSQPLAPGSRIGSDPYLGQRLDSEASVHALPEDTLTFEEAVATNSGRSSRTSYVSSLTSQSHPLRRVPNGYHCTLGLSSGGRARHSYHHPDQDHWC
human Cav2.2, sequence (P54289 25-946 partner limits assumed): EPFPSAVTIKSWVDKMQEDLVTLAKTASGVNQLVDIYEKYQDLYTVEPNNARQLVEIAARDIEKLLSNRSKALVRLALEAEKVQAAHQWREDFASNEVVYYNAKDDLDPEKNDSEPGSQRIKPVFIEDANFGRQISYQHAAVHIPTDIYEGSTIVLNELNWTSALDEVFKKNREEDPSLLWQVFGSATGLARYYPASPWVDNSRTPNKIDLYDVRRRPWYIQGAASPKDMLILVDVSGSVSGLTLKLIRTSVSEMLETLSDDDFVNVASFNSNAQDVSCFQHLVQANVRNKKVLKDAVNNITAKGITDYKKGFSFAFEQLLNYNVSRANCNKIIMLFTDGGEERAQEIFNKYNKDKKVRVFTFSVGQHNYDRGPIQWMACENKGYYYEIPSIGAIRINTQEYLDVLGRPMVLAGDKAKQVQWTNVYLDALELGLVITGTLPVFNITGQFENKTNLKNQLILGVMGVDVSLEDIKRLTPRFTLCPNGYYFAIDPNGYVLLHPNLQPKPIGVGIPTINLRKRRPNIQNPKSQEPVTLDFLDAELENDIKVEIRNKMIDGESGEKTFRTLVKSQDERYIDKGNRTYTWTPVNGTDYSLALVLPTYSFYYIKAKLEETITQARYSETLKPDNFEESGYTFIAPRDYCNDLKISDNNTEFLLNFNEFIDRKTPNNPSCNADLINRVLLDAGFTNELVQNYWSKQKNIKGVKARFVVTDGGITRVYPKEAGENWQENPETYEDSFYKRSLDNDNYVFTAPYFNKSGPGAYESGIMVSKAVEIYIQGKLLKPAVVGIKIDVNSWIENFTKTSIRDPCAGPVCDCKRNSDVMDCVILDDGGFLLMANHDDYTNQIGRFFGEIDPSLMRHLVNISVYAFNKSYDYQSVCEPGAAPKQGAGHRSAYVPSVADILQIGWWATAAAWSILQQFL
human Cav2.2, sequence (P54289 947-1103 partner limits assumed): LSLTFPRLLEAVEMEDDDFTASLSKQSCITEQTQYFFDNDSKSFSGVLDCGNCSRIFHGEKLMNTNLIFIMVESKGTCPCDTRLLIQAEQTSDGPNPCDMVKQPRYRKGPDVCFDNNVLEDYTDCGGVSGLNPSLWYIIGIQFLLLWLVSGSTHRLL
human Cav2.2, sequence (P54284 whole entry partner): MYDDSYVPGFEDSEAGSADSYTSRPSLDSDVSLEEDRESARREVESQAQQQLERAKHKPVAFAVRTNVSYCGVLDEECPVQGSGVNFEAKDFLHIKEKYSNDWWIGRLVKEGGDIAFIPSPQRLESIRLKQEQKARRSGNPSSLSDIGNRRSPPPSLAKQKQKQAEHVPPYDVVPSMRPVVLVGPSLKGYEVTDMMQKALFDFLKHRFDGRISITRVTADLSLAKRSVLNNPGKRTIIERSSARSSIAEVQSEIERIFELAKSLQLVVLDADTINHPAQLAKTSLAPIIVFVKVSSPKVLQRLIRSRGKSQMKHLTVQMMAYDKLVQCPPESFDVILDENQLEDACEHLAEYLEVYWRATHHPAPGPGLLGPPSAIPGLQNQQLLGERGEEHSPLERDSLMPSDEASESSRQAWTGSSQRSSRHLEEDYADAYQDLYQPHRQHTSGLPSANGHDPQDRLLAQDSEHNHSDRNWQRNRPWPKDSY

Row | pIC50 | Compound
1 | 5.62 | COc1ccc(CN2C[C@H]3CC[C@H](NC(=O)C(c4ccccc4)C(C)C)[C@H]3C2)cc1 (stereo partly drawn) [Example 96, N-[(3aR,4S,6aS)-2-(4-methoxybenzyl)octahydrocyclopenta[c]pyrrol-4-yl]-3-methyl-2-phenylbutanamide]
2 | 5.28 | CC(C)C(C(=O)N[C@H]1CC[C@@H]2CN(Cc3cccc(C#N)c3)C[C@@H]21)c1ccccc1 (stereo partly drawn) [Example 97, N-[(3aR,4S,6aS)-2-(3-cyanobenzyl)octahydrocyclopenta[c]pyrrol-4-yl]-3-methyl-2-phenylbutanamide]
3 | 5.31 | CC(C)C(C(=O)N[C@H]1CC[C@@H]2CN(Cc3ccc(C(F)(F)F)cc3)C[C@@H]21)c1ccccc1 (stereo partly drawn) [Example 98, 3-methyl-2-phenyl-N-{(3aR,4S,6aS)-2-[4-(trifluoromethyl)benzyl]octahydrocyclopenta[c]pyrrol-4-yl}butanamide]
4 | 5.32 | CC(C)C(C(=O)N[C@H]1CC[C@@H]2CN(Cc3ccccc3C(F)(F)F)C[C@@H]21)c1ccccc1 (stereo partly drawn) [Example 99, 3-methyl-2-phenyl-N-{(3aR,4S,6aS)-2-[2-(trifluoromethyl)benzyl]octahydrocyclopenta[c]pyrrol-4-yl}butanamide]
5 | 5.38 | CC(C)C(C(=O)N[C@H]1CC[C@@H]2CN(Cc3ccc(F)c(C(F)(F)F)c3)C[C@@H]21)c1ccccc1 (stereo partly drawn) [Example 100, N-{(3aR,4S,6aS)-2-[4-fluoro-3-(trifluoromethyl)benzyl]octahydrocyclopenta[c]pyrrol-4-yl}-3-methyl-2-phenylbutanamide]
6 | 5.33 | CC(C)C(C(=O)N[C@H]1CC[C@@H]2CN(Cc3ccc(C(F)(F)F)c(F)c3)C[C@@H]21)c1ccccc1 (stereo partly drawn) [Example 101, N-{(3aR,4S,6aS)-2-[3-fluoro-4-(trifluoromethyl)benzyl]octahydrocyclopenta[c]pyrrol-4-yl}-3-methyl-2-phenylbutanamide]
7 | 4.51 | CC(C)C(C(=O)N[C@H]1CC[C@@H]2CN(Cc3ccncc3)C[C@@H]21)c1ccccc1 (stereo partly drawn) [Example 103, 3-methyl-2-phenyl-N-[(3aR,4S,6aS)-2-(pyridin-4-ylmethyl)octahydrocyclopenta[c]pyrrol-4-yl]butanamide]
8 | 5.24 | CC(C)C(C(=O)N[C@H]1CC[C@@H]2CN(CCCc3ccc(C(C)(C)C)cc3)C[C@@H]21)c1ccccc1 (stereo partly drawn) [Example 106, N-{(3aR,4S,6aS)-2-[3-(4-tert-butylphenyl)propyl]octahydrocyclopenta[c]pyrrol-4-yl}-3-methyl-2-phenylbutanamide]
9 | 4.95 | Cc1ccccc1CCCN1C[C@H]2CC[C@H](NC(=O)C(c3ccccc3)C(C)C)[C@H]2C1 (stereo partly drawn) [Example 108, 3-methyl-N-{(3aR,4S,6aS)-2-[3-(2-methylphenyl)propyl]octahydrocyclopenta[c]pyrrol-4-yl}-2-phenylbutanamide]
10 | 5.05 | CC(C)C(C(=O)N[C@H]1CC[C@@H]2CN(CCCc3cccc(Cl)c3)C[C@@H]21)c1ccccc1 (stereo partly drawn) [Example 109, N-{(3aR,4S,6aS)-2-[3-(3-chlorophenyl)propyl]octahydrocyclopenta[c]pyrrol-4-yl}-3-methyl-2-phenylbutanamide]
11 | 5.70 | Cc1cccc(CCCN2C[C@H]3CC[C@H](NC(=O)C(c4ccccc4)C(C)C)[C@H]3C2)c1 (stereo partly drawn) [Example 110, 3-methyl-N-{(3aR,4S,6aS)-2-[3-(3-methylphenyl)propyl]octahydrocyclopenta[c]pyrrol-4-yl}-2-phenylbutanamide]
12 | 5.66 | CC(C)C(C(=O)N[C@H]1CC[C@@H]2CN(CCCc3cccc(C(F)(F)F)c3)C[C@@H]21)c1ccccc1 (stereo partly drawn) [Example 111, 3-methyl-2-phenyl-N-((3aR,4S,6aS)-2-{3-[3-(trifluoromethyl)phenyl]propyl}octahydrocyclopenta[c]pyrrol-4-yl)butanamide]
13 | 5.55 | CC(C)C(C(=O)N[C@H]1CC[C@@H]2CN(CCCc3cccc(F)c3)C[C@@H]21)c1ccccc1 (stereo partly drawn) [Example 112, N-{(3aR,4S,6aS)-2-[3-(3-fluorophenyl)propyl]octahydrocyclopenta[c]pyrrol-4-yl}-3-methyl-2-phenylbutanamide]
14 | 5.51 | CC(C)C(C(=O)N[C@H]1CC[C@@H]2CN(CCCCc3ccccc3)C[C@@H]21)c1ccccc1 (stereo partly drawn) [Example 113, 3-methyl-2-phenyl-N-[(3aR,4S,6aS)-2-(4-phenylbutyl)octahydrocyclopenta[c]pyrrol-4-yl]butanamide]

Same assay, conditions: 60 minute pre-incubation with compound, 2 μM nifedipine, depolarized with 80 mM KCl

Row | pIC50 | Compound
15 | 5.82 | CC(C)C(C(=O)N[C@H]1CC[C@@H]2CN(CCCc3ccccc3)C[C@@H]21)c1ccccc1 (stereo partly drawn) [Example 105, 3-methyl-2-phenyl-N-[(3aR,4S,6aS)-2-(3-phenylpropyl)octahydrocyclopenta[c]pyrrol-4-yl]butanamide]
16 | 5.92 | CC(C)C(C(=O)N[C@H]1CC[C@@H]2CN(CCCc3ccc(C(F)(F)F)cc3)C[C@@H]21)c1ccccc1 (stereo partly drawn) [Example 115, 3-methyl-2-phenyl-N-((3aR,4S,6aS)-2-{3-[4-(trifluoromethyl)phenyl]propyl}octahydrocyclopenta[c]pyrrol-4-yl)butanamide]
17 | 6.10 | O=C(N[C@H]1CC[C@H]2CN(Cc3cccc(C(F)(F)F)c3)C[C@H]21)C(O)(C1CCCCC1)C1CCCCC1 [Example 152, 2,2-dicyclohexyl-2-hydroxy-N-{(3aS,4S,6aR)-2-[3-(trifluoromethyl)benzyl]octahydrocyclopenta[c]pyrrol-4-yl}acetamide]
18 | 6.40 | CC(C)C[C@@H](C(=O)N[C@H]1CC[C@H]2CN(Cc3cccc(C(F)(F)F)c3)C[C@H]21)N(C)C(=O)OC(C)(C)C [Example 153, N^2-(tert-butyloxycarbonyl)-N^2-methyl-N^1-{(3aS,4S,6aR)-2-[3-(trifluoromethyl)benzyl]octahydrocyclopenta[c]pyrrol-4-yl}-L-leucinamide]
19 | 5.82 | CC(=O)N(C)[C@@H](CC(C)C)C(=O)N[C@H]1CC[C@H]2CN(Cc3cccc(C(F)(F)F)c3)C[C@H]21 [Example 175, N^2-acetyl-N^2-methyl-N^1-{(3aS,4S,6aR)-2-[3-(trifluoromethyl)benzyl]octahydrocyclopenta[c]pyrrol-4-yl}-L-leucinamide]
20 | 6.10 | O=S(=O)(N[C@@H]1CC[C@@H]2CN(Cc3cccc(C(F)(F)F)c3)C[C@@H]21)c1cccc(C(F)(F)F)c1 [Example 188, 3-(trifluoromethyl)-N-{(3aR,4R,6aS)-2-[3-(trifluoromethyl)benzyl]octahydrocyclopenta[c]pyrrol-4-yl}benzenesulfonamide]
21 | 5.89 | O=S(=O)(N[C@@H]1CC[C@H]2CN(Cc3ccccc3)C[C@H]21)c1cccc(C(F)(F)F)c1 [Example 190, N-[(3aS,4R,6aR)-2-benzyloctahydrocyclopenta[c]pyrrol-4-yl]-3-(trifluoromethyl)benzenesulfonamide]
22 | 5.85 | O=S(=O)(N[C@@H]1CC[C@H]2CN(Cc3ccc(C(F)(F)F)c(F)c3)C[C@H]21)c1cccc(C(F)(F)F)c1 [Example 194, N-{(3aS,4R,6aR)-2-[3-fluoro-4-(trifluoromethyl)benzyl]octahydrocyclopenta[c]pyrrol-4-yl}-3-(trifluoromethyl)benzenesulfonamide]
23 | 5.47 | O=C(N[C@H]1CC[C@H]2CN(S(=O)(=O)c3cccc(C(F)(F)F)c3)C[C@H]21)C(C1CCCCC1)C1CCCCC1 [Example 205, 2,2-dicyclohexyl-N-((3aS,4S,6aR)-2-{[3-(trifluoromethyl)phenyl]sulfonyl}octahydrocyclopenta[c]pyrrol-4-yl)acetamide]
24 | < 4.00 | O=C(N[C@H]1CC[C@H]2CN(S(=O)(=O)CCc3ccccc3)C[C@H]21)C(C1CCCCC1)C1CCCCC1 [Example 206, 2,2-dicyclohexyl-N-{(3aS,4S,6aR)-2-[(2-phenylethyl)sulfonyl]octahydrocyclopenta[c]pyrrol-4-yl}acetamide]
25 | < 4.00 | O=C(N[C@H]1CC[C@H]2CN(S(=O)(=O)CCc3cccc4ccccc34)C[C@H]21)C(C1CCCCC1)C1CCCCC1 [Example 207, 2,2-dicyclohexyl-N-((3aS,4S,6aR)-2-{[2-(1-naphthyl)ethyl]sulfonyl}octahydrocyclopenta[c]pyrrol-4-yl)acetamide]
26 | < 4.00 | O=C(N[C@H]1CC[C@H]2CN(S(=O)(=O)Cc3cccc(C(F)(F)F)c3)C[C@H]21)C(C1CCCCC1)C1CCCCC1 [Example 208, 2,2-dicyclohexyl-N-((3aS,4S,6aR)-2-{[3-(trifluoromethyl)benzyl]sulfonyl}octahydrocyclopenta[c]pyrrol-4-yl)acetamide]
27 | < 4.00 | O=C(N[C@H]1CC[C@H]2CN(S(=O)(=O)CCc3ccc(F)cc3)C[C@H]21)C(C1CCCCC1)C1CCCCC1 [Example 209, 2,2-dicyclohexyl-N-((3aS,4S,6aR)-2-{[2-(4-fluorophenyl)ethyl]sulfonyl}octahydrocyclopenta[c]pyrrol-4-yl)acetamide]

Same assay, conditions: IMR-32, @ 10 μM, 3 minute pre-incubation (*), read-out: percent inhibition

Row | inhibition at 10 µM | Compound
28 | 83% | COc1cccc(CN2C[C@H]3CC[C@H](NC(=O)C(c4ccccc4)C(C)C)[C@H]3C2)c1 (stereo partly drawn) [Example 90, N-[(3aR,4S,6aS)-2-(3-methoxybenzyl)octahydrocyclopenta[c]pyrrol-4-yl]-3-methyl-2-phenylbutanamide]
29 | 79% | CC(C)C(C(=O)N[C@H]1CC[C@@H]2CN(CCc3ccccc3)C[C@@H]21)c1ccccc1 (stereo partly drawn) [Example 104, 3-methyl-2-phenyl-N-[(3aR,4S,6aS)-2-(2-phenylethyl)octahydrocyclopenta[c]pyrrol-4-yl]butanamide]
30 | 76% | CC[C@H](C(=O)N[C@@H]1CC[C@@H]2CN([C@@H](C)c3ccccc3)C[C@@H]21)c1ccccc1 [Example 210, (2S)-2-phenyl-N-{(3aR,4R,6aS)-2-[(1S)-1-phenylethyl]octahydrocyclopenta[c]pyrrol-4-yl}butanamide]
